The NIST ThermoML archive (doi:10.1016/j.jct.2016.04.014)

Details: Liquid, Vibrating tube method

CCCCCCC [heptane]
Details	mass density [kg/m3]
288.15 K, 100 kPa	688.4
288.15 K, 101 kPa	688.33
288.15 K, 1000 kPa	689.2
288.15 K, 5000 kPa	692.5
288.15 K, 10000 kPa	696.5
288.15 K, 15000 kPa	700.4
288.15 K, 20000 kPa	704.1
288.15 K, 25000 kPa	707.7
288.15 K, 30000 kPa	711.1
288.15 K, 35000 kPa	714.3
288.15 K, 40000 kPa	717.4
288.15 K, 45000 kPa	720.3
288.15 K, 50000 kPa	723.1
288.15 K, 55000 kPa	725.8
288.15 K, 60000 kPa	728.2
293.15 K, 100 kPa	684.2
293.15 K, 101 kPa	684.11
293.15 K, 1000 kPa	685
293.15 K, 5000 kPa	688.4
293.15 K, 10000 kPa	692.6
293.15 K, 15000 kPa	696.5
293.15 K, 20000 kPa	700.4
293.15 K, 25000 kPa	704
293.15 K, 30000 kPa	707.5
293.15 K, 35000 kPa	710.9
293.15 K, 40000 kPa	714
293.15 K, 45000 kPa	717
293.15 K, 50000 kPa	719.9
293.15 K, 55000 kPa	722.5
293.15 K, 60000 kPa	725.1
298.15 K, 100 kPa	679.9
298.15 K, 101 kPa	679.87
298.15 K, 1000 kPa	680.7
298.15 K, 5000 kPa	684.3
298.15 K, 10000 kPa	688.6
298.15 K, 15000 kPa	692.7
298.15 K, 20000 kPa	696.6
298.15 K, 25000 kPa	700.4
298.15 K, 30000 kPa	704
298.15 K, 35000 kPa	707.4
298.15 K, 40000 kPa	710.7
298.15 K, 45000 kPa	713.8
298.15 K, 50000 kPa	716.7
298.15 K, 55000 kPa	719.4
298.15 K, 60000 kPa	721.9
303.15 K, 100 kPa	675.7
303.15 K, 101 kPa	675.6
303.15 K, 1000 kPa	676.5
303.15 K, 5000 kPa	680.2
303.15 K, 10000 kPa	684.6
303.15 K, 15000 kPa	688.9
303.15 K, 20000 kPa	693
303.15 K, 25000 kPa	696.8
303.15 K, 30000 kPa	700.5
303.15 K, 35000 kPa	704
303.15 K, 40000 kPa	707.4
303.15 K, 45000 kPa	710.5
303.15 K, 50000 kPa	713.5
303.15 K, 55000 kPa	716.2
303.15 K, 60000 kPa	718.8
308.15 K, 100 kPa	671.4
308.15 K, 101 kPa	671.31
308.15 K, 1000 kPa	672.2
308.15 K, 5000 kPa	676
308.15 K, 10000 kPa	680.6
308.15 K, 15000 kPa	685
308.15 K, 20000 kPa	689.2
308.15 K, 25000 kPa	693.2
308.15 K, 30000 kPa	697
308.15 K, 35000 kPa	700.6
308.15 K, 40000 kPa	704
308.15 K, 45000 kPa	707.2
308.15 K, 50000 kPa	710.3
308.15 K, 55000 kPa	713.1
308.15 K, 60000 kPa	715.7
313.15 K, 100 kPa	667.1
313.15 K, 101 kPa	667
313.15 K, 1000 kPa	668
313.15 K, 5000 kPa	672
313.15 K, 10000 kPa	676.7
313.15 K, 15000 kPa	681.2
313.15 K, 20000 kPa	685.5
313.15 K, 25000 kPa	689.6
313.15 K, 30000 kPa	693.5
313.15 K, 35000 kPa	697.2
313.15 K, 40000 kPa	700.7
313.15 K, 45000 kPa	704
313.15 K, 50000 kPa	707.1
313.15 K, 55000 kPa	709.9
313.15 K, 60000 kPa	712.6
318.15 K, 100 kPa	662.7
318.15 K, 1000 kPa	663.6
318.15 K, 5000 kPa	667.7
318.15 K, 10000 kPa	672.6
318.15 K, 15000 kPa	677.3
318.15 K, 20000 kPa	681.8
318.15 K, 25000 kPa	686
318.15 K, 30000 kPa	690
318.15 K, 35000 kPa	693.8
318.15 K, 40000 kPa	697.4
318.15 K, 45000 kPa	700.7
318.15 K, 50000 kPa	703.9
318.15 K, 55000 kPa	706.8
318.15 K, 60000 kPa	709.5
323.15 K, 100 kPa	658.3
323.15 K, 1000 kPa	659.3
323.15 K, 5000 kPa	663.5
323.15 K, 10000 kPa	668.6
323.15 K, 15000 kPa	673.4
323.15 K, 20000 kPa	678
323.15 K, 25000 kPa	682.4
323.15 K, 30000 kPa	686.5
323.15 K, 35000 kPa	690.4
323.15 K, 40000 kPa	694.1
323.15 K, 45000 kPa	697.5
323.15 K, 50000 kPa	700.7
323.15 K, 55000 kPa	703.7
323.15 K, 60000 kPa	706.4
328.15 K, 100 kPa	653.9
328.15 K, 1000 kPa	654.9
328.15 K, 5000 kPa	659.3
328.15 K, 10000 kPa	664.5
328.15 K, 15000 kPa	669.5
328.15 K, 20000 kPa	674.3
328.15 K, 25000 kPa	678.8
328.15 K, 30000 kPa	683
328.15 K, 35000 kPa	687
328.15 K, 40000 kPa	690.8
328.15 K, 45000 kPa	694.3
328.15 K, 50000 kPa	697.6
328.15 K, 55000 kPa	700.6
328.15 K, 60000 kPa	703.3
333.15 K, 100 kPa	649.5
333.15 K, 1000 kPa	650.6
333.15 K, 5000 kPa	655.1
333.15 K, 10000 kPa	660.5
333.15 K, 15000 kPa	665.7
333.15 K, 20000 kPa	670.6
333.15 K, 25000 kPa	675.2
333.15 K, 30000 kPa	679.6
333.15 K, 35000 kPa	683.7
333.15 K, 40000 kPa	687.5
333.15 K, 45000 kPa	691.1
333.15 K, 50000 kPa	694.4
333.15 K, 55000 kPa	697.4
333.15 K, 60000 kPa	700.2
343.15 K, 100 kPa	640.5
343.15 K, 1000 kPa	641.6
343.15 K, 5000 kPa	646.5
343.15 K, 10000 kPa	652.3
343.15 K, 15000 kPa	657.8
343.15 K, 20000 kPa	663.1
343.15 K, 25000 kPa	668
343.15 K, 30000 kPa	672.6
343.15 K, 35000 kPa	676.9
343.15 K, 40000 kPa	681
343.15 K, 45000 kPa	684.7
343.15 K, 50000 kPa	688.1
343.15 K, 55000 kPa	691.3
343.15 K, 60000 kPa	694.1
353.15 K, 100 kPa	631.3
353.15 K, 1000 kPa	632.5
353.15 K, 5000 kPa	637.8
353.15 K, 10000 kPa	644
353.15 K, 15000 kPa	649.9
353.15 K, 20000 kPa	655.5
353.15 K, 25000 kPa	660.7
353.15 K, 30000 kPa	665.6
353.15 K, 35000 kPa	670.2
353.15 K, 40000 kPa	674.4
353.15 K, 45000 kPa	678.3
353.15 K, 50000 kPa	681.9
353.15 K, 55000 kPa	685.1
353.15 K, 60000 kPa	688
363.15 K, 100 kPa	621.9
363.15 K, 1000 kPa	623.2
363.15 K, 5000 kPa	628.9
363.15 K, 10000 kPa	635.6
363.15 K, 15000 kPa	641.9
363.15 K, 20000 kPa	647.9
363.15 K, 25000 kPa	653.4
363.15 K, 30000 kPa	658.6
363.15 K, 35000 kPa	663.5
363.15 K, 40000 kPa	667.9
363.15 K, 45000 kPa	672
363.15 K, 50000 kPa	675.7
363.15 K, 55000 kPa	679
363.15 K, 60000 kPa	681.9
373.15 K, 1000 kPa	614.2
373.15 K, 5000 kPa	620.2
373.15 K, 10000 kPa	627.4
373.15 K, 15000 kPa	634.1
373.15 K, 20000 kPa	640.4
373.15 K, 25000 kPa	646.3
373.15 K, 30000 kPa	651.8
373.15 K, 35000 kPa	656.9
373.15 K, 40000 kPa	661.5
373.15 K, 45000 kPa	665.8
373.15 K, 50000 kPa	669.6
373.15 K, 55000 kPa	673.1
373.15 K, 60000 kPa	676.1
393.15 K, 1000 kPa	594.6
393.15 K, 5000 kPa	601.7
393.15 K, 10000 kPa	610
393.15 K, 15000 kPa	617.8
393.15 K, 20000 kPa	625
393.15 K, 25000 kPa	631.7
393.15 K, 30000 kPa	637.9
393.15 K, 35000 kPa	643.6
393.15 K, 40000 kPa	648.7
393.15 K, 45000 kPa	653.3
393.15 K, 50000 kPa	657.4
393.15 K, 55000 kPa	660.9
393.15 K, 60000 kPa	663.9
413.15 K, 1000 kPa	574.1
413.15 K, 5000 kPa	582.3
413.15 K, 10000 kPa	592
413.15 K, 15000 kPa	600.9
413.15 K, 20000 kPa	609.2
413.15 K, 25000 kPa	616.9
413.15 K, 30000 kPa	623.9
413.15 K, 35000 kPa	630.2
413.15 K, 40000 kPa	635.9
413.15 K, 45000 kPa	640.9
413.15 K, 50000 kPa	645.2
413.15 K, 55000 kPa	648.9
413.15 K, 60000 kPa	651.9
